According to patent US20010056085A1, “Methods of using vesicant drug formulations” (priority 1996, published 2001):
Where “and” joins values, the source holds several entries; their conditions need not be identical. Equal values may be shown once. Read-outs that look alike come from different tables or passages of the source.

Assay: Half-life of ADR destruction by UVA light in the presence of test compounds (decrease in absorbance at 480 nm)
Type: physicochemical
[1] = UVA light, 100 μM test compound alone
[2] = UVA light, 100 μM test compound with 0.5 μM riboflavin

Row | SMILES | Half-Life of ADR Destruction, 100 μM Test Compound [1] | Half-Life of ADR Destruction, 100 μM Test Compound and 0.5 μM Riboflavin [2] | further results
1 | O=C(O)CCOc1cccc2ccccc12 [3-(1-naphthyloxy) propionic acid] | 75.3 min | – | –
2 | O=C1c2ccc(S(=O)(=O)O)cc2C(=O)c2ccc(S(=O)(=O)O)cc21 [Anthraquinone-2,6-disulfonic acid] | 0.275 min | 0.283 min | –
3 | O=C1c2ccccc2-c2ncccc21 [4-Aza-9-fluorenone] | – | 50.2 min | –
4 | CC(C(=O)O)c1ccc(-c2ccccc2)c(F)c1 (stereo not drawn) [Flurbiprofen, 4-Phenyl-3-Fluoro-α-Methyl Phenylacetic Acid, reference compound] | 75.3 min | 50.2 min | –
5 | Nc1cc(C[C@H](N)C(=O)O)ccc1O [3-Amino-4-Hydroxy Phenylalanine] | – | 100.3 min | –
6 | OCc1cccc2ccccc12 [1-Naphthalenemethanol] | – | 50.2 min | –
7 | O=C(O)c1cc2c(cc1C(=O)O)C(=O)c1ccccc1C2=O [Anthraquinone-2,3-dicarboxylic acid] | 1.57 min | – | –
8 | NCc1ccc(CN)cc1 [4-Aminomethyl Benzylamine] | – | 50.2 min and 33.5 min | –
9 | COc1[nH]c2ccccc2c1CN(C)C [2-Methoxy-3-(dimethylaminomethyl) indole] | 75.3 min | 13.7 min | –
10 | O=C(O)C(=O)c1c[nH]c2ccccc12 [3-Indole glyoxylic acid] | – | 43.0 min | –
11 | O=C(O)C1=CC=C2N=NN=C2C1 [5-Benzotriazole-carboxylic acid] | – | 75.3 min | –
12 | COc1cc(C=CC=O)ccc1O [3-Methoxy-4-Hydroxy Cinnamaldehyde] | – | 50.2 min | –
13 | Nc1ccc2c(O)cc(S(=O)(=O)O)cc2c1 [7-Amino-4-hydroxy-2-naphthalenesulfonic acid] | – | 30.1 min | –
14 | O=C(/C=C/c1ccc(O)c(O)c1)O[C@@H]1C[C@](O)(C(=O)O)C[C@@H](O)[C@H]1O [3-Caffeolyquinic Acid] | 100.3 min | 100.3 min | –
15 | O=C(O)c1ccc(C(=O)c2ccccc2)cc1 [4-Benzophenone-carboxylic acid] | – | – | Half-Life of ADR Destruction, 100 μM Test Compound: 10.0 min; Half-Life of ADR Destruction, 100 μM Test Compound and 0.5 μM Riboflavin: 7.72 min
16 | O=C(O)c1cccc(O)c1 [3-Hydroxy Benzoic Acid] | – | 23.2 min | –
17 | O=C(O)Cc1ccc2ccccc2c1 [Naphthalene-2-acetic acid] | 75.3 min | 30.1 min | –
18 | Cn1cc(C[C@H](N)C(=O)O)c2ccccc21 [1-Methyl-tryptophan] | – | 9.71 min | –
19 | COc1cc(OC)c(OC)cc1C=CC(=O)O [2,4,5-Trimethoxy Cinnamic Acid] | – | 18.8 min | –
20 | Cc1[nH]c2ccccc2c1C [2,3-Dimethyl Indole] | – | 20.1 min | –

Row | SMILES | Half-Life of ADR Destruction, 100 μM Test Compound [1] | Half-Life of ADR Destruction, 100 μM Test Compound and 0.5 μM Riboflavin [2] | further results
21 | O=C(c1ccccc1)c1ccc2n1CCC2C(=O)O (centres unmarked) [Ketorlac, reference compound] | – | – | Half-Life of ADR Destruction, 100 μM Test Compound: 4.07 min; Half-Life of ADR Destruction, 100 μM Test Compound and 0.5 μM Riboflavin: 3.81 min
22 | O=C(O)C=Cc1ccc2ccccc2c1 [3-(2-Naphthyl)acrylic acid] | – | 43.0 min | –
23 | CN(C)c1ccc(C(=O)O)cc1 [4-(Dimethylamino) Benzoic Acid] | – | 75.3 min | –
24 | COc1ccc2c(CC(=O)O)cc(=O)oc2c1 [7-Methoxycoumarin-4-acetic acid] | 14.3 min | 11.6 min | –
25 | Nc1ccc(F)cc1F [2,4-Difluoro Aniline] | – | 7.92 min | –
26 | C1=CCNC1 [Compound 3-Pyrroline, 3-Pyrroline] | – | 43.0 min | –
27 | Cc1cc(C(=O)O)ccc1N [4-Amino-3-Methyl Benzoic Acid] | – | 15.8 min | –
28 | COc1ccc2[nH]c3ccccc3c(=O)c2c1 [2-Methoxy-9(10H) Acridone] | – | – | Half-Life of ADR Destruction, 100 μM Test Compound: 23.2 min; Half-Life of ADR Destruction, 100 μM Test Compound and 0.5 μM Riboflavin: 16.7 min
29 | O=S(O)c1ccccc1 [Benzenesulfinic acid] | – | 15.8 min | –
30 | OCCc1c[nH]c2ccccc12 [3-Indoleethanol] | – | 8.14 min | –
31 | Nc1cc[nH]c(=O)n1 [Cytosine] | 50.2 min | 43.0 min | –
32 | O=Cc1ccc2ccccc2c1 [2-Naphthaldehyde] | 6.14 min | 5.68 min | –
33 | O=S(=O)=C1C=CC=C(S(=O)(=O)O)C1 [3-Sulfonyl-benzenesulfonic acid] | – | 50.2 min | –
34 | CN(C)c1ccc(CC(=O)O)cc1 [4-(Dimethylamino) Phenylacetic acid] | – | 100.3 min | –
35 | Nc1cccc(Oc2ccccc2)c1 [3-Phenoxyaniline] | 43.0 min | 12.5 min | –
36 | COc1ccc2cc(C#N)ccc2c1 [6-Methoxynaphthalene-2-nitrile] | 23.2 min | 20.1 min | –
37 | O=C(O)/C=C/c1ccccc1 [trans-Cinnamic Acid] | 43.0 min | – | –
38 | COc1ccc2c(c1)c(CC(=O)O)c(C)n2C(=O)c1ccc(Cl)cc1 [Indomethacin, 1-(4-Chlorobenzoyl)-5-Methoxy-2-Methyl-indole-3-acetic acid, reference compound] | 100.3 min | – | –
39 | COc1ccc2cc(C(C)=O)ccc2c1 [6-Methoxy-2-acetonaphthone] | 15.8 min | – | –
40 | COc1ccc(C(C)=O)c(O)c1 [2′-Hydroxy-4-methoxyaceotphenone] | – | – | Half-Life of ADR Destruction, 100 μM Test Compound: 75.3 min
